The PolyMetriX glass transition set
± gives the standard deviation of the reports.

Row | Compound | glass transition temperature
1 | *CC(*)c1ccc(C(C)C)cc1 (repeat unit) | 62.40 °C
2 | *CC(*)(C)C(=O)OCCCCCCCCCCOc1ccc(/N=N/c2ccc(F)cc2)cc1 (repeat unit) | 49.00 °C
3 | *CC(OO*)c1ccc(Br)cc1 (repeat unit) | 9.60 °C
4 | *c1cccc(OCCCCCOc2cccc(N3C(=O)c4ccc(-c5cccc6c5C(=O)N(*)C6=O)cc4C3=O)c2)c1 (repeat unit) | 168.00 °C
5 | *C(=O)Oc1ccc(OC(=O)c2ccc3c(c2)C(=O)N(c2ccc(Oc4ccc(N5C(=O)c6ccc(*)cc6C5=O)cc4)cc2)C3=O)c(C(C)(C)C)c1 (repeat unit) | 189.00 °C
6 | *c1ccc(Oc2ccc(Oc3ccc(Oc4ccc(-n5c(=O)c6cc7c(=O)n(*)c(=O)c7cc6c5=O)cc4)cc3)cc2)cc1 (repeat unit) | 295.00 °C
7 | *c1cccc(OCCCCCCCCCCCOC(=O)c2ccc(C(=O)OCCCCCCCCCCCOc3cccc(-c4nnc(*)s4)c3)cc2)c1 (repeat unit) | 22.00 °C
8 | *CCOCCOCCN1C(=O)c2ccc(C(=O)Oc3ccc(OC(=O)c4ccc5c(c4)C(=O)N(*)C5=O)c(-c4ccccc4)c3)cc2C1=O (repeat unit) | 105.00 °C
9 | *C1C(=O)N(CCCCCCCOc2ccc(-c3ccc(C#N)cc3)cc2)C(=O)C1* (repeat unit) | 61.00 °C
10 | */C=C/C1CC(*)C([Si](C)(C)C)C1 (repeat unit) | 113.00 °C
11 | *Oc1ccc(NC(=O)c2ccc(Oc3ccc(C(C)(C)c4ccc(C(C)(C)c5ccc(Oc6ccc(C(=O)Nc7ccc(Oc8ccc(C(C)(C)c9ccc(*)cc9)cc8)cc7)cc6)cc5)cc4)cc3)cc2)cc1 (repeat unit) | 163.00 °C
12 | *c1ccc(Oc2ccc(Sc3ccc(Oc4ccc(N5C(=O)c6ccc(Oc7ccc(Sc8ccc(Oc9ccc%10c(c9)C(=O)N(*)C%10=O)cc8)cc7)cc6C5=O)cc4)cc3)cc2)cc1 (repeat unit) | 186.00 °C
13 | *C(=O)c1ccc2c(c1)C(=O)N(c1ccc(Oc3ccc(C(=O)c4cccc(C(=O)c5ccc(Oc6ccc(N7C(=O)c8ccc(*)cc8C7=O)cc6C(F)(F)F)cc5)n4)cc3)c(C(F)(F)F)c1)C2=O (repeat unit) | 225.20 °C
14 | *O[Si](C)(C)O[Si](C)(C)O[Si](C)(C)C#Cc1ccc(C#C[Si](*)(C)C)cc1 (repeat unit) | 96.00 °C
15 | *c1ccc2c(c1)C(=O)N(c1cccc(C(c3cccc(N4C(=O)c5ccc(C(*)(C(F)(F)F)C(F)(F)F)cc5C4=O)c3)(C(F)(F)F)C(F)(F)F)c1)C2=O (repeat unit) | 263.00 °C
16 | *CCOCCC(=O)O* (repeat unit) | -35.00 °C
17 | *C(=O)Nc1ccc(Oc2ccc(NC(=O)c3ccc(N4C(=O)c5ccc(*)cc5C4=O)cc3)cc2)cc1 (repeat unit) | 296.00 °C
18 | *c1cccc(-c2cccc(C(F)(F)C(F)(F)C(*)(F)F)c2)c1 (repeat unit) | 45.00 °C
19 | *c1ccc(OCCOc2ccc(/C=C/c3ccc([N+](=O)[O-])cc3)c(OCCOc3ccc(-c4nc5ccc(Oc6ccc7nc(*)c(-c8ccccc8)nc7c6)cc5nc4-c4ccccc4)cc3)c2)cc1 (repeat unit) | 187.00 °C
20 | *Oc1ccc(S(=O)(=O)c2ccc(Oc3ccc(C(c4ccc(*)cc4)(C(F)(F)F)C(F)(F)F)cc3)cc2)cc1 (repeat unit) | 199.70 °C
21 | *c1ccc(C(C)(C)c2ccc(C(C)(C)c3ccc(N4C(=O)c5ccc(Oc6ccc7ccc(Oc8ccc9c(c8)C(=O)N(*)C9=O)cc7c6)cc5C4=O)cc3)cc2)cc1 (repeat unit) | 246.00 °C
22 | *Oc1ccc(S(=O)(=O)c2ccc3cc(S(=O)(=O)c4ccc(Oc5c(C)cc(-c6cc(C)c(*)c(C)c6)cc5C)cc4)ccc3c2)cc1 (repeat unit) | 280.00 °C

Row | Compound | glass transition temperature
23 | *c1ccc(Cc2ccc(N3C(=O)c4ccc([Si](C)(C)O[Si](C)(C)c5ccc6c(c5)C(=O)N(*)C6=O)cc4C3=O)cc2)cc1 (repeat unit) | 232.00 °C
24 | *c1ccc(N(c2ccc(C#N)cc2)c2ccc(-n3c(=O)c4cc5c(=O)n(*)c(=O)c5cc4c3=O)cc2)cc1 (repeat unit) | 353.00 °C
25 | *Oc1cc(Oc2ccc(C(C)(C)c3ccc(*)cc3)cc2)cc(C(=O)Oc2ccc(/N=N/c3ccc(C#N)cc3)cc2)c1 (repeat unit) | 163.00 °C
26 | *CCOP(=O)(/N=N/c1ccc(Oc2ccc(/N=N/P(=O)(O*)OCC)cc2)cc1)OCC (repeat unit) | 22.00 °C
27 | *Oc1ccc(NC(=O)c2ccc(P(=O)(c3ccccc3)c3ccc(C(=O)Nc4ccc(*)cc4)cc3)cc2)cc1 (repeat unit) | 254.00 °C
28 | *C(=O)NCCNC(=O)c1ncn(C)c1* (repeat unit) | 189.00 °C
29 | *CC#CC#CCOc1ccc(C(=O)OCCN(CCOC(=O)c2ccc(O*)cc2)c2ccc(/N=N/c3ccc([N+](=O)[O-])cc3)cc2)cc1 (repeat unit) | 100.00 °C
30 | *CC(*)(C)C(=O)OC1CCOCC1 (repeat unit) | 153.50 °C
31 | *C(=O)Nc1cccc(NC(=O)c2ccc3[nH]c(-c4ccc(-c5nc6cc(*)ccc6[nH]5)cc4)nc3c2)c1 (repeat unit) | 294.00 °C
32 | *CC(O)C(O)CN(*)c1ccc(N(C)C)cc1 (repeat unit) | 72.00 °C
33 | *CCCCCCCCCCCCOc1ccc(OCc2ccc(COc3ccc(O*)cc3)cc2)cc1 (repeat unit) | 24.00 °C
34 | *C(=O)Nc1cccc(N2C(=O)CC(N3C(=O)c4ccc(*)cc4C3=O)C2=O)c1 (repeat unit) | 130.00 °C
35 | *c1ccc(-c2ccc(-c3ccc4nc(Oc5cc(-c6ccccc6)c6cc(*)ccc6n5)cc(-c5ccccc5)c4c3)cc2)cc1 (repeat unit) | 308.00 °C
36 | *c1ccc(N(c2ccc(C#N)cc2)c2ccc(N3C(=O)c4ccc(Oc5ccc6c(c5)C(=O)N(*)C6=O)cc4C3=O)cc2)cc1 (repeat unit) | 304.00 °C
37 | *CCC[Si](*)(C)c1ccc(N(C)C)cc1 (repeat unit) | 6.50 °C
38 | *c1ccc(-c2cc(-c3ccc(OCCCC#N)cc3)cc(-c3ccc(-n4c(=O)c5cc6c(=O)n(*)c(=O)c6cc5c4=O)cc3)n2)cc1 (repeat unit) | 345.00 °C
39 | *CC(*)(C)C(=O)OCCC(C)(C)C (repeat unit) [Poly(3,3-dimethylbutyl methacrylate)] | 45 ± 1.2 °C
40 | *c1ccc2c(c1)C(=O)N(c1c(C)cc(Cc3cc(C)c(N4C(=O)c5ccc(C(*)(C(F)(F)F)C(F)(F)F)cc5C4=O)c(C(C)C)c3)cc1C(C)C)C2=O (repeat unit) | 276.00 °C
41 | *c1ccc2c(c1)C(=O)N(c1ccc(Oc3ccc(C(=O)c4cccc(C(=O)c5ccc(Oc6ccc(N7C(=O)c8ccc(C(*)(C(F)(F)F)C(F)(F)F)cc8C7=O)cc6)cc5)c4)cc3)cc1)C2=O (repeat unit) | 236.00 °C
42 | *c1cccc(P(=O)(c2ccccc2)c2cccc(N3C(=O)c4ccc(NC(=O)OCCOc5ccc(P(=O)(c6ccccc6)c6ccc(OCCOC(=O)Nc7ccc8c(c7)C(=O)N(*)C8=O)cc6)cc5)cc4C3=O)c2)c1 (repeat unit) | 218.00 °C
43 | *Oc1ccc(S(=O)(=O)c2ccc(Oc3ccc(NC(=O)c4ccc(-c5ccc(C(=O)Nc6ccc(*)cc6)c(C)c5)cc4C)cc3)cc2)cc1 (repeat unit) | 251.00 °C

Other lines, results leading:

Row | glass transition temperature | Compound
44 | 109.00 °C | *Cc1cc(CNC(=O)CCCCC(=O)N*)cc(C(C)(C)C)c1 (repeat unit)
45 | 130.00 °C | *CCN(*)C(=O)c1ccc2ccccc2c1 (repeat unit)
46 | 84.00 °C | *CCOC(=O)NCC1(C)CC(NC(=O)O*)CC(C)(C)C1 (repeat unit)
47 | 29.00 °C | *CC(*)(C)C(=O)OCc1ccc2c(c1)c1ccccc1n2CCCCCCCCCC (repeat unit)
48 | 93.2 °C | *CCCCCCNC(=O)CCC(C)(C)c1ccc(C(C)(C)CCC(=O)N*)cc1 (repeat unit)
49 | 20.00 °C | *CC(F)(F)C(F)(F)C(F)(F)C(F)(F)COC(=O)NCC(F)(F)C(F)(F)C(F)(F)C(F)(F)CNC(=O)O* (repeat unit)
50 | 142.00 °C | *CC(*)(CC(=O)OC1CCCCC1)C(=O)OC1CCCCC1 (repeat unit)
51 | 42.00 °C | *CC(COC(=O)O*)OCCCCOc1ccc(/C=C/c2ccc([N+](=O)[O-])cc2)cc1 (repeat unit)
52 | 77.00 °C | *CCCC(C)(C)CNC(=O)CCCCC(=O)N* (repeat unit)
53 | 67.00 °C | *Oc1ccc(CC(NC(=O)CCc2ccc(OC(*)=O)cc2)C(=O)OCCCC)cc1 (repeat unit)
54 | 71.00 °C | *CCCCCCOC(=O)Nc1ccc(Cc2ccc(NC(=O)O*)cc2)cc1 (repeat unit)
55 | 65.00 °C | *Oc1ccc(CC(NC(=O)Cc2ccc(OC(=O)CCCC(*)=O)cc2)C(=O)OCC)cc1 (repeat unit)
56 | 161.00 °C | *Oc1ccc(C(c2ccccc2)(c2ccccc2)c2ccc(OC(=O)OC3C(C)(C)C(OC(*)=O)C3(C)C)cc2)cc1 (repeat unit)
57 | 158.00 °C | *Oc1cccc(OC(=O)c2ccc(C(C)(C)c3ccc(C(*)=O)cc3)cc2)c1 (repeat unit)
58 | 128.00 °C | *CCCCCCCCOc1ccc(NC(=O)c2cccc(C(=O)Nc3ccc(O*)cc3)c2)cc1 (repeat unit)
59 | 72.00 °C | *CC(*)C(=O)Oc1ccccc1C(C)(C)C (repeat unit)
60 | -36.00 °C | *CCCCCCCCCCCCC(=O)O* (repeat unit)
61 | 50.00 °C | *CCOCCOC(=O)c1ccc(-c2ccc(C(=O)O*)cc2)cc1 (repeat unit)
62 | 125.50 °C | *CC(OCC(C)C)C(C)(C(=O)OC)C(*)(C)C(=O)OC (repeat unit)
63 | 245.00 °C | *Oc1ccc2c(c1)C1(CC2(C)C)CC(C)(C)c2ccc(OC(=O)c3cccc(C(*)=O)c3)cc21 (repeat unit)
64 | 290.00 °C | *Oc1ccc2c(c1)C1(CC2(C)C)CC(C)(C)c2ccc(OC(=O)c3ccc(C(*)=O)cc3)cc21 (repeat unit)
65 | 89.00 °C | *CCCCCCCCNC(=O)C(OC)C(OC)C(=O)N* (repeat unit)
